Drawing on ChEMBL document CHEMBL1147319, “Spectroscopic and biological investigation of nimbolide and 28-deoxonimbolide from Azadirachta indica” (1989), this text covers EC50 for 2 compounds.

Assay type in all cases: functional
In one assay the test system is HT-1080. As to the kind of experiment: Cytotoxicity against human HT1080 cells after 48 hrs. The conditions noted are these: HT-1080, 48 h, read-out: ED50 (the source's name).
For a further assay, the system named is Lu1. The assay can be described thus: Cytotoxicity against human Lu1 cells. The conditions noted are these: read-out: ED50 (the source's name).
A further assay has as its system P388. The assay can be described thus: Cytotoxicity against mouse P388 cells after 48 hrs. The note with it: P388, 48 h, read-out: ED50 (the source's name).
A short description of assay [1]: Cytotoxicity against human BC1 cells after 72 hrs. The note with it: BC1, 72 h, read-out: ED50 (the source's name).
A further assay has as its system KB. The assay can be described thus: Cytotoxicity against human KB cells after 72 hrs. The note with it: read-out: ED50 (the source's name).
In another assay the test system is SK-MEL-2. As to the kind of experiment: Cytotoxicity against human SK-MEL-2 cells after 72 hrs. The note with it: SK-MEL-2, 72 h, read-out: ED50 (the source's name).
Another assay has as its system Col2. The assay can be described thus: Cytotoxicity against human Col2 cells after 72 hrs. The conditions noted are these: Col2, 72 h, read-out: ED50 (the source's name).

Values after ≈ are worked out from the molar mass of the structure shown.

On to `COC(=O)C[C@H]1[C@]2(C)C3=C(C)[C@H](c4ccoc4)C[C@H]3O[C@@H]2[C@@H]2OC[C@]3(C)C=CC(=O)[C@@]1(C)[C@@H]23`, for which the EC50 was 1.04 µg/mL (≈ 2.3 µM) with HT-1080; 0.84 µg/mL (≈ 1.86 µM) in the assay on Lu1; 0.66 µg/mL (≈ 1.46 µM) in the assay on P388; 1.34 µg/mL (≈ 2.96 µM) in assay [1]; 1.3 µg/mL (≈ 2.87 µM) with KB; 2.05 µg/mL (≈ 4.53 µM) in the assay on SK-MEL-2. Besides, the EC50 with Col2 was determined as 1.81 µg/mL (≈ 4 µM).
With `COC(=O)C[C@H]1[C@]2(C)C3=C(C)[C@H](c4ccoc4)C[C@H]3O[C@@H]2[C@@H]2OC(=O)[C@]3(C)C=CC(=O)[C@@]1(C)[C@@H]23` [NIMBOLIDE], the EC50 in the assay with HT-1080 amounted to 0.31 µg/mL (≈ 0.664 µM); with Lu1, 0.42 µg/mL (≈ 0.9 µM); with P388, 0.065 µg/mL (≈ 0.139 µM); in assay [1] it was 0.39 µg/mL (≈ 0.836 µM); with KB, 0.25 µg/mL (≈ 0.536 µM); in the assay on SK-MEL-2, 0.53 µg/mL (≈ 1.14 µM). In addition, the EC50 in the assay on Col2 came out at 0.41 µg/mL (≈ 0.879 µM).
